{
  "source": "patent US20240376129A1",
  "about": "“METALLODRUG THERAPEUTIC COMPOUNDS AND PRODRUGS OF METALLODRUG THERAPEUTIC COMPOUNDS” (Dublin City University, priority 2021, published 2024)",
  "key": {"supercoiled pUC19 DNA": {"system": "supercoiled pUC19 DNA", "test": "DNA condensation of supercoiled pUC19 by gel electrophoresis", "type": "biochemical", "details": "for DNA condensation activity: supercoiled pUC19, at 100 μM; for DNA condensation / aggregation effect: supercoiled pUC19, tested at 100 and 500 μM, 37° C., 90 min", "experimental": "Preparation of solutions. Tri-Click samples were initially prepared in DMF and further diluted in HEPES buffer (80 mM). Metal complexes of the Tri-Click series were prepared in-situ by co-incubating with copper(II) nitrate trihydrate, manganese (II) chloride tetrahydrate or zinc(II) acetate dihydrate for 30 min at 37° C. prior to DNA addition.\nDNA nuclease and condensation studies. Reactions were carried out in 80 mM HEPES (pH 7.4) unless otherwise stated and followed the general procedure: a total volume of 20 μL with 25 mM NaCl, 400 ng pUC19 at varying concentrations of test compounds (0.25-500 μM) were incubated at 37° C. for either 90 min, 6 h, 12 h or 24 h. Reactions were quenched by adding 6× loading buffer (Fermentas) containing 10 mM Tris-HCl, 0.03% bromophenol blue, 0.03% xylene cyanole FF, 60% glycerol, 60 mM EDTA and samples were loaded onto an agarose gel (1.2%) containing 4 μL EtBr. Electrophoresis was completed at 70 V for 1 h in 1×TAE buffer. DNA studies conducted in the presence of reductant were supplemented with 1 mM Na-L-ascorbate and incubated at 37° C. for 30 min. Electrophoresis was carried out at 70 V for 90 minutes in 1×TAE buffer and photographed using a UV transilluminator.\nThe DNA recognition properties of the TC series, along with the control compounds, were probed using electrophoresis experiments with supercoiled pUC19 DNA. TC1 was examined across a wide concentration range and found to condense DNA at high concentrations between 250 and 500 μM (FIG. 2a, lanes 11-13)."}, "poly[d(A-T)2]": {"system": "poly[d(A-T)2]", "test": "Competitive ethidium bromide displacement assay, poly[d(A-T)2]", "type": "binding", "details": "A-T duplex polymer, EtBr displacement", "experimental": "(§1) Competitive ethidium bromide displacement assay. The DNA binding affinity of the tripodal series was determined over a 2 h time period using calf-thymus DNA and synthetic alternating co-polymers poly[d(A-T)2)] and poly[d(G-C)2] by ethidium bromide fluorescence quenching in a similar manner to the high throughput method previously reported by Kellett et al. (McCann, M., McGinley, J., Ni, K., O'Connor, M., Kavanagh, K., McKee, V., Colleran, J., Devereux, M., Gathergood, N., Barron, N. et al. (2013) A new phenanthroline-oxazine ligand: synthesis, coordination chemistry and atypical DNA binding interaction. Chem. Commun., 49, 2341-2343). Each drug concentration was measured in triplicate, on at least two separate occasions, and the apparent binding constants were calculated using Kapp=Ke×12.6/C50 where Ke=9.5×10^6 M^−1."}, "poly[d(G-C)2]": {"system": "poly[d(G-C)2]", "test": "Competitive ethidium bromide displacement assay, poly[d(G-C)2]", "type": "binding", "details": "EtBr displacement", "experimental": "as §1"}, "calf-thymus DNA (ctDNA)": {"system": "calf-thymus DNA (ctDNA)", "test": "Competitive ethidium bromide displacement assay, calf-thymus DNA", "type": "binding", "experimental": "as §1"}},
  "data": [
    {"molecule": "2,4,6-Tris-(1,2-ethanediamine)-mesitylene [T2]", "values": [
      {"measurement": "DNA condensation activity", "setting": "supercoiled pUC19 DNA", "result": "highly active"}
    ]},
    {"molecule": "2,4,6-Tris-(1,3-propanediamine)-mesitylene [T3]", "values": [
      {"measurement": "DNA condensation activity", "setting": "supercoiled pUC19 DNA", "result": "highly active"}
    ]},
    {"molecule": "Cc1c(CN)c(C)c(CN)c(C)c1CN", "note": "[T1, 2,4,6-Tris-(aminomethyl)-mesitylene]", "values": [
      {"measurement": "DNA condensation / aggregation effect", "setting": "supercoiled pUC19 DNA", "result": "mildly condense pUC19"}
    ]},
    {"molecule": "Cc1c(Cn2cc(CN)nn2)c(C)c(Cn2cc(CN)nn2)c(C)c1Cn1cc(CN)nn1", "note": "[TC1, Tri-Click propargylamine]", "values": [
      {"measurement": "apparent DNA binding constant (Kapp)", "setting": "poly[d(A-T)2]", "result": "~10^6 M^−1"},
      {"measurement": "apparent DNA binding constant (Kapp)", "setting": "poly[d(G-C)2]", "result": "~10^5 M^−1"},
      {"measurement": "apparent DNA binding constant (Kapp)", "setting": "calf-thymus DNA (ctDNA); ctDNA, EtBr displacement", "result": "~10^6 M^−1"},
      {"measurement": "binding affinity to duplex DNA (summary)", "setting": "calf-thymus DNA (ctDNA); duplex DNA, conclusion summary over ctDNA and co-polymers", "result": "10^5-10^6 M^−1"}
    ]},
    {"molecule": "Cc1c(Cn2cc(-c3cccc(N(C)C)c3)nn2)c(C)c(Cn2cc(-c3cccc(N(C)C)c3)nn2)c(C)c1Cn1cc(-c2cccc(N(C)C)c2)nn1", "note": "[TC6, Tri-Click 3-ethynyl-N,N-dimethylaniline]", "values": [
      {"measurement": "DNA condensation / aggregation effect", "setting": "supercoiled pUC19 DNA", "result": "slight aggregation effects"}
    ]},
    {"molecule": "Cc1c(Cn2cc(-c3ccc(N(C)C)cc3)nn2)c(C)c(Cn2cc(-c3ccc(N(C)C)cc3)nn2)c(C)c1Cn1cc(-c2ccc(N(C)C)cc2)nn1", "note": "[TC7, Tri-Click 4-ethynyl-N,N-dimethylaniline]", "values": [
      {"measurement": "DNA condensation / aggregation effect", "setting": "supercoiled pUC19 DNA", "result": "slight aggregation effects"}
    ]}
  ]
}
